#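 Tested at 5 concentrations; 48 h exposure; 96-well plates; endpoints linearly interpolated, else capped at highest concentration. TGI marks complete inhibition of growth.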
# How the values were obtained:
# Assay in all cases: DTP human tumour cell line panel, 48 h
# BT-549 breast = test system: BT-549 breast
# SW-620 colon = test system: SW-620 colon
# SK-MEL-5 melanoma = test system: SK-MEL-5 melanoma
# K-562 leukemia = test system: K-562 leukemia
# HCT-116 colon = test system: HCT-116 colon
# CCRF-CEM leukemia = test system: CCRF-CEM leukemia
# HOP-92 NSCLC = test system: HOP-92 NSCLC
# HCC-2998 colon = test system: HCC-2998 colon
# SK-OV-3 ovarian = test system: SK-OV-3 ovarian
# MDA-N = test system: MDA-N
# RPMI-8226 leukemia = test system: RPMI-8226 leukemia
# MOLT-4 leukemia = test system: MOLT-4 leukemia
# T-47D breast = test system: T-47D breast
# NCI/ADR-RES ovarian = test system: NCI/ADR-RES ovarian
# M14 melanoma = test system: M14 melanoma
# OVCAR-4 ovarian = test system: OVCAR-4 ovarian
# SN12C renal = test system: SN12C renal
# MDA-MB-435 = test system: MDA-MB-435
# A498 renal = test system: A498 renal
# 786-0 renal = test system: 786-0 renal
# HT29 colon = test system: HT29 colon
# OVCAR-5 ovarian = test system: OVCAR-5 ovarian
# U251 CNS = test system: U251 CNS
# SK-MEL-2 melanoma = test system: SK-MEL-2 melanoma
# SF-539 CNS = test system: SF-539 CNS
# NCI-H522 lung = test system: NCI-H522 lung
# SF-268 CNS = test system: SF-268 CNS
# IGROV1 ovarian = test system: IGROV1 ovarian
# ACHN renal = test system: ACHN renal
# HCT-15 colon = test system: HCT-15 colon
# SF-295 CNS = test system: SF-295 CNS
# SR leukemia = test system: SR leukemia
# NCI-H460 lung = test system: NCI-H460 lung
# PC-3 prostate = test system: PC-3 prostate
# SK-MEL-28 melanoma = test system: SK-MEL-28 melanoma
# OVCAR-8 ovarian = test system: OVCAR-8 ovarian
# SNB-19 CNS = test system: SNB-19 CNS
# LOX IMVI melanoma = test system: LOX IMVI melanoma
# NCI-H226 lung = test system: NCI-H226 lung
# MCF7 breast = test system: MCF7 breast
# COLO 205 colon = test system: COLO 205 colon
# UO-31 renal = test system: UO-31 renal
# TK-10 renal = test system: TK-10 renal
# MDA-MB-231 breast = test system: MDA-MB-231 breast
# RXF 393 renal = test system: RXF 393 renal
# KM12 colon = test system: KM12 colon
# EKVX NSCLC = test system: EKVX NSCLC
# DU-145 prostate = test system: DU-145 prostate
# OVCAR-3 ovarian = test system: OVCAR-3 ovarian
# MALME-3M melanoma = test system: MALME-3M melanoma
# NCI-H23 lung = test system: NCI-H23 lung
# HOP-62 NSCLC = test system: HOP-62 NSCLC
# UACC-62 melanoma = test system: UACC-62 melanoma
# A549 NSCLC = test system: A549 NSCLC
# HS 578T breast = test system: HS 578T breast
# SNB-75 CNS = test system: SNB-75 CNS
# HL-60(TB) leukemia = test system: HL-60(TB) leukemia
# UACC-257 melanoma = test system: UACC-257 melanoma
# CAKI-1 renal = test system: CAKI-1 renal
# DLD-1 colon = test system: DLD-1 colon
# SNB-78 CNS = test system: SNB-78 CNS
# M19-MEL melanoma = test system: M19-MEL melanoma
# DMS 114 small cell lung = test system: DMS 114 small cell lung
# LXFL 529 NSCLC = test system: LXFL 529 NSCLC
structure (smiles),measurement,setting,value
CC(=O)NC1=C(OS(=O)(=O)c2ccc(C)cc2)CN(C)C1=O,TGI,BT-549 breast,12 µM
same,TGI,SW-620 colon,> 37.3 µM
same,TGI,SK-MEL-5 melanoma,18.4 µM
same,TGI,K-562 leukemia,28.3 µM
same,TGI,HCT-116 colon,12 µM
same,TGI,CCRF-CEM leukemia,4.28 µM
same,TGI,HOP-92 NSCLC,8.49 µM
same,TGI,HCC-2998 colon,11.5 µM
same,TGI,SK-OV-3 ovarian,21 µM
same,TGI,MDA-N,24.5 µM
same,TGI,RPMI-8226 leukemia,5.77 µM
same,TGI,MOLT-4 leukemia,17.9 µM
same,TGI,T-47D breast,9.35 µM
same,TGI,NCI/ADR-RES ovarian,44.9 µM
same,TGI,M14 melanoma,20 µM
same,TGI,OVCAR-4 ovarian,20.9 µM
same,TGI,SN12C renal,16.4 µM
same,TGI,MDA-MB-435,16.7 µM
same,TGI,A498 renal,18 µM
same,TGI,786-0 renal,16.5 µM
same,TGI,HT29 colon,20 µM
same,TGI,OVCAR-5 ovarian,32 µM
same,TGI,U251 CNS,8.75 µM
same,TGI,SK-MEL-2 melanoma,9.63 µM
same,TGI,SF-539 CNS,5.84 µM
same,TGI,NCI-H522 lung,9.74 µM
same,TGI,SF-268 CNS,45 µM
same,TGI,IGROV1 ovarian,12.1 µM
same,TGI,ACHN renal,12.3 µM
same,TGI,HCT-15 colon,13.2 µM
same,TGI,SF-295 CNS,13.9 µM
same,TGI,SR leukemia,> 100 µM
same,TGI,NCI-H460 lung,7.77 µM
same,TGI,PC-3 prostate,10.1 µM
same,TGI,SK-MEL-28 melanoma,> 42.7 µM
same,TGI,OVCAR-8 ovarian,20.3 µM
same,TGI,SNB-19 CNS,14.9 µM
same,TGI,LOX IMVI melanoma,17.5 µM
same,TGI,NCI-H226 lung,62.7 µM
same,TGI,MCF7 breast,11.7 µM
same,TGI,COLO 205 colon,25.3 µM
same,TGI,UO-31 renal,14.2 µM
same,TGI,TK-10 renal,7.97 µM
same,TGI,MDA-MB-231 breast,23.1 µM
same,TGI,RXF 393 renal,13.3 µM
same,TGI,KM12 colon,14.3 µM
same,TGI,EKVX NSCLC,14.2 µM
same,TGI,DU-145 prostate,16.7 µM
same,TGI,OVCAR-3 ovarian,8.14 µM
same,TGI,MALME-3M melanoma,6.21 µM
same,TGI,NCI-H23 lung,15.3 µM
same,TGI,HOP-62 NSCLC,11.9 µM
same,TGI,UACC-62 melanoma,21.2 µM
same,TGI,A549 NSCLC,15.3 µM
same,TGI,HS 578T breast,> 42.2 µM
same,TGI,SNB-75 CNS,15.1 µM
same,TGI,HL-60(TB) leukemia,7.09 µM
same,TGI,UACC-257 melanoma,11.8 µM
same,TGI,CAKI-1 renal,14 µM
Brc1cccc(C2SCc3nc4ccccc4n32)c1 (stereo not drawn),TGI,DLD-1 colon,29.9 µM
same,TGI,SW-620 colon,> 100 µM
same,TGI,SK-MEL-5 melanoma,18.9 µM
same,TGI,K-562 leukemia,> 100 µM
same,TGI,HCT-116 colon,29.4 µM
same,TGI,CCRF-CEM leukemia,> 100 µM
same,TGI,HOP-92 NSCLC,35.6 µM
same,TGI,SK-OV-3 ovarian,65 µM
same,TGI,RPMI-8226 leukemia,> 100 µM
same,TGI,MOLT-4 leukemia,> 100 µM
same,TGI,SNB-78 CNS,99.2 µM
same,TGI,M19-MEL melanoma,49.1 µM
same,TGI,DMS 114 small cell lung,35.2 µM
same,TGI,M14 melanoma,53.1 µM
same,TGI,OVCAR-4 ovarian,63.3 µM
same,TGI,SN12C renal,33.2 µM
same,TGI,786-0 renal,44.5 µM
same,TGI,HT29 colon,52.3 µM
same,TGI,OVCAR-5 ovarian,> 100 µM
same,TGI,U251 CNS,36.3 µM
same,TGI,SF-539 CNS,40.9 µM
same,TGI,NCI-H522 lung,36.6 µM
same,TGI,SF-268 CNS,> 100 µM
same,TGI,IGROV1 ovarian,98.9 µM
same,TGI,ACHN renal,> 100 µM
same,TGI,HCT-15 colon,35.9 µM
same,TGI,SF-295 CNS,86.3 µM
same,TGI,SR leukemia,57.7 µM
same,TGI,NCI-H460 lung,99.1 µM
same,TGI,SK-MEL-28 melanoma,47.9 µM
same,TGI,OVCAR-8 ovarian,60.7 µM
same,TGI,LXFL 529 NSCLC,> 100 µM
same,TGI,LOX IMVI melanoma,28.6 µM
same,TGI,NCI-H226 lung,27 µM
same,TGI,COLO 205 colon,38.6 µM
same,TGI,UO-31 renal,25.7 µM
same,TGI,TK-10 renal,65.1 µM
same,TGI,RXF 393 renal,26.4 µM
same,TGI,KM12 colon,42.7 µM
same,TGI,EKVX NSCLC,55.2 µM
same,TGI,OVCAR-3 ovarian,32.6 µM
same,TGI,MALME-3M melanoma,77.5 µM
same,TGI,NCI-H23 lung,44.7 µM
same,TGI,HOP-62 NSCLC,40.7 µM
same,TGI,UACC-62 melanoma,31 µM
same,TGI,A549 NSCLC,> 100 µM
same,TGI,SNB-75 CNS,3.51 µM
same,TGI,HL-60(TB) leukemia,34.9 µM
same,TGI,CAKI-1 renal,> 100 µM
